Activity calls are given as the source filed them. No rule for the calls is given here.
Tested on: CCRIS mutagenicity, Ames/micronucleus/aberration tests
Assay: CCRIS mutagenicity studies
[1] = Test System: AMES SALMONELLA TYPHIMURIUM, Strain/Indicator: TA98, Metabolic Activation: NONE, Method: PREINCUBATION
[2] = Test System: AMES SALMONELLA TYPHIMURIUM, Strain/Indicator: TA100, Metabolic Activation: HAMSTER, LIVER, S-9, AROCLOR 1254 (30%), Method: PREINCUBATION
[3] = Test System: AMES SALMONELLA TYPHIMURIUM, Strain/Indicator: TA100, Metabolic Activation: NONE, Method: PREINCUBATION
[4] = Test System: AMES SALMONELLA TYPHIMURIUM, Strain/Indicator: TA100, Metabolic Activation: RAT, LIVER, S-9, AROCLOR 1254 (30%), Method: PREINCUBATION
[5] = Test System: AMES SALMONELLA TYPHIMURIUM, Strain/Indicator: TA98, Metabolic Activation: NONE, Method: STANDARD PLATE
[6] = Test System: AMES SALMONELLA TYPHIMURIUM, Strain/Indicator: TA100, Metabolic Activation: NONE, Method: STANDARD PLATE
[7] = Test System: AMES SALMONELLA TYPHIMURIUM, Strain/Indicator: TA1537, Metabolic Activation: NONE, Method: STANDARD PLATE
[8] = Test System: AMES SALMONELLA TYPHIMURIUM, Strain/Indicator: TA1535, Metabolic Activation: NONE, Method: PREINCUBATION

With `OCC(O)CI` (configuration not stated) as the molecule, how does the mutagenic call (Test System: AMES SALMONELLA TYPHIMURIUM, Strain/Indicator: TA98, Metabolic Activation: HAMSTER, LIVER, S-9, AROCLOR 1254 (30%), Method: PREINCUBATION) read?
The mutagenic call was “inactive; negative”.

And the mutagenic call [1]?
Its mutagenic call is “inactive; negative”.

What about the mutagenic call (Test System: AMES SALMONELLA TYPHIMURIUM, Strain/Indicator: TA98, Metabolic Activation: RAT, LIVER, S-9, AROCLOR 1254 (30%), Method: PREINCUBATION) of the same molecule?
The mutagenic call was “inactive; negative”.

What about the mutagenic call [2] of the same molecule?
Its mutagenic call is “active; positive”.

What about the mutagenic call [3] of the same molecule?
The mutagenic call was “active; positive”.

What about the mutagenic call [4] of the same molecule?
The mutagenic call was “active; positive”.

How did the mutagenic call [5] turn out when `CC(C)NCC(O)COc1cccc2c1OCC(O)C2` (configuration not stated) was run?
The mutagenic call was “inactive; negative”.

And the mutagenic call (Test System: AMES SALMONELLA TYPHIMURIUM, Strain/Indicator: TA98, Metabolic Activation: S-9, Method: STANDARD PLATE)?
The mutagenic call was “inactive; negative”.

What about the mutagenic call [6] of the same molecule?
The mutagenic call was “inactive; negative”.

And the mutagenic call (Test System: AMES SALMONELLA TYPHIMURIUM, Strain/Indicator: TA100, Metabolic Activation: S-9, Method: STANDARD PLATE)?
The mutagenic call was “inactive; negative”.

What about the mutagenic call (Test System: AMES SALMONELLA TYPHIMURIUM, Strain/Indicator: TA1535, Metabolic Activation: NONE, Method: STANDARD PLATE) of the same molecule?
Its mutagenic call is “inactive; negative”.

What about the mutagenic call (Test System: AMES SALMONELLA TYPHIMURIUM, Strain/Indicator: TA1535, Metabolic Activation: S-9, Method: STANDARD PLATE) of the same molecule?
The mutagenic call was “inactive; negative”.

And the mutagenic call [7]?
The mutagenic call was “inactive; negative”.

What about the mutagenic call (Test System: AMES SALMONELLA TYPHIMURIUM, Strain/Indicator: TA1537, Metabolic Activation: S-9, Method: STANDARD PLATE) of the same molecule?
The mutagenic call was “inactive; negative”.

And the mutagenic call (Test System: AMES SALMONELLA TYPHIMURIUM, Strain/Indicator: TA1538, Metabolic Activation: NONE, Method: STANDARD PLATE)?
Its mutagenic call is “inactive; negative”.

And the mutagenic call (Test System: AMES SALMONELLA TYPHIMURIUM, Strain/Indicator: TA1538, Metabolic Activation: S-9, Method: STANDARD PLATE)?
Its mutagenic call is “inactive; negative”.

What about the mutagenic call (Test System: E. COLI, Strain/Indicator: WP2 UVRA, Metabolic Activation: NONE, Method: STANDARD PLATE) of the same molecule?
Its mutagenic call is “inactive; negative”.

What about the mutagenic call (Test System: E. COLI, Strain/Indicator: WP2 UVRA, Metabolic Activation: S-9, Method: STANDARD PLATE) of the same molecule?
Its mutagenic call is “inactive; negative”.

What does the source list for `COc1cc(OC)nc(NC(=O)NS(=O)(=O)c2ncccc2C(=O)N(C)C)n1`?
mutagenic call (Test System: Chinese hamster lung cells, Strain/Indicator: V79 (HPRT)/6-Thioguanine, Metabolic Activation: None, Method: Standard plate?): inactive; negative; mutagenic call (Test System: Chinese hamster lung cells, Strain/Indicator: V79 (HPRT)/6-Thioguanine, Metabolic Activation: S-9, Method: Standard plate?): inactive; negative; mutagenic call (Test System: TA97, Metabolic Activation: None, Method: Preincubation?): inactive; negative; mutagenic call (Test System: TA97, Metabolic Activation: S-9, Method: Preincubation?): inactive; negative; mutagenic call (Test System: TA98, Metabolic Activation: None, Method: Preincubation?): inactive; negative; mutagenic call (Test System: TA98, Metabolic Activation: S-9, Method: Preincubation?): inactive; negative; mutagenic call (Test System: TA100, Metabolic Activation: None, Method: Preincubation?): inactive; negative; mutagenic call (Test System: TA100, Metabolic Activation: S-9, Method: Preincubation?): inactive; negative; mutagenic call (Test System: TA102, Metabolic Activation: None, Method: Preincubation?): inactive; negative; mutagenic call (Test System: TA102, Metabolic Activation: S-9, Method: Preincubation?): inactive; negative

`NN(CCO)c1ccn([C@@H]2O[C@H](CO)[C@@H](O)[C@H]2O)c(=O)n1` was tested. Which mutagenic call (Test System: CHINESE HAMSTER V-79, Strain/Indicator: V-79/6-THIOGUANINE, Metabolic Activation: NONE, Method: REPLATING) did it give?
Its mutagenic call is “inactive; negative”.

`C=CC(=O)OCC(C)C` was tested. Which mutagenic call (Test System: AMES SALMONELLA TYPHIMURIUM, Strain/Indicator: TA98, Metabolic Activation: HAMSTER, LIVER, S-9, AROCLOR 1254 (10%), Method: PREINCUBATION) did it give?
The mutagenic call was “inactive; negative”.

What about the mutagenic call [1] of the same molecule?
Its mutagenic call is “inactive; negative”.

And the mutagenic call (Test System: AMES SALMONELLA TYPHIMURIUM, Strain/Indicator: TA98, Metabolic Activation: RAT, LIVER, S-9, AROCLOR 1254 (10%), Method: PREINCUBATION)?
The mutagenic call was “inactive; negative”.

And the mutagenic call (Test System: AMES SALMONELLA TYPHIMURIUM, Strain/Indicator: TA100, Metabolic Activation: HAMSTER, LIVER, S-9, AROCLOR 1254 (10%), Method: PREINCUBATION)?
The mutagenic call was “inactive; negative”.

And the mutagenic call [3]?
The mutagenic call was “inactive; negative”.

What about the mutagenic call (Test System: AMES SALMONELLA TYPHIMURIUM, Strain/Indicator: TA100, Metabolic Activation: RAT, LIVER, S-9, AROCLOR 1254 (10%), Method: PREINCUBATION) of the same molecule?
The mutagenic call was “inactive; negative”.

And the mutagenic call (Test System: AMES SALMONELLA TYPHIMURIUM, Strain/Indicator: TA1535, Metabolic Activation: HAMSTER, LIVER, S-9, AROCLOR 1254 (10%), Method: PREINCUBATION)?
The mutagenic call was “inactive; negative”.

And the mutagenic call [8]?
Its mutagenic call is “inactive; negative”.

And the mutagenic call (Test System: AMES SALMONELLA TYPHIMURIUM, Strain/Indicator: TA1535, Metabolic Activation: RAT, LIVER, S-9, AROCLOR 1254 (10%), Method: PREINCUBATION)?
The mutagenic call was “inactive; negative”.

And the mutagenic call (Test System: AMES SALMONELLA TYPHIMURIUM, Strain/Indicator: TA1537, Metabolic Activation: HAMSTER, LIVER, S-9, AROCLOR 1254 (10%), Method: PREINCUBATION)?
The mutagenic call was “inactive; negative”.

And the mutagenic call (Test System: AMES SALMONELLA TYPHIMURIUM, Strain/Indicator: TA1537, Metabolic Activation: NONE, Method: PREINCUBATION)?
The mutagenic call was “inactive; negative”.

And the mutagenic call (Test System: AMES SALMONELLA TYPHIMURIUM, Strain/Indicator: TA1537, Metabolic Activation: RAT, LIVER, S-9, AROCLOR 1254 (10%), Method: PREINCUBATION)?
The mutagenic call was “inactive; negative”.

Which mutagenic call [2] does the source give for `CC(C)(C)OCC1CO1` (configuration not stated) here?
The mutagenic call was “active; positive”.

What about the mutagenic call [3] of the same molecule?
The mutagenic call was “active; positive”.

What about the mutagenic call [4] of the same molecule?
The mutagenic call was “active; positive”.

What about the mutagenic call (Test System: AMES SALMONELLA TYPHIMURIUM, Strain/Indicator: TA1535, Metabolic Activation: HAMSTER, LIVER, S-9, AROCLOR 1254 (30%), Method: PREINCUBATION) of the same molecule?
Its mutagenic call is “active; positive”.

And the mutagenic call [8]?
The mutagenic call was “active; positive”.

What about the mutagenic call (Test System: AMES SALMONELLA TYPHIMURIUM, Strain/Indicator: TA1535, Metabolic Activation: RAT, LIVER, S-9, AROCLOR 1254 (30%), Method: PREINCUBATION) of the same molecule?
Its mutagenic call is “active; positive”.

`NCCc1ccc(O)cc1` was tested. Which mutagenic call (Test System: MOUSE LYMPHOMA, Strain/Indicator: L5178Y (TK+/TK-), Metabolic Activation: NONE, Method: SUSPENSION/PLATE) did it give?
Its mutagenic call is “active; positive”.

What about the mutagenic call (Test System: MOUSE LYMPHOMA, Strain/Indicator: L5178Y (TK+/TK-), Metabolic Activation: RAT, LIVER, S-9, AROCLOR 1254, Method: SUSPENSION/PLATE) of the same molecule?
Its mutagenic call is “active; positive”.

What does the source list for `c1ccc2c(c1)OCCOCCOCCOCCO2`?
mutagenic call [5]: inactive; negative; mutagenic call (Test System: AMES SALMONELLA TYPHIMURIUM, Strain/Indicator: TA98, Metabolic Activation: RAT, LIVER, S-9, AROCLOR 1254, Method: STANDARD PLATE): inactive; negative; mutagenic call [6]: inactive; negative; mutagenic call (Test System: AMES SALMONELLA TYPHIMURIUM, Strain/Indicator: TA100, Metabolic Activation: RAT, LIVER, S-9, AROCLOR 1254, Method: STANDARD PLATE): inactive; negative; mutagenic call (Test System: AMES SALMONELLA TYPHIMURIUM, Strain/Indicator: TA1530, Metabolic Activation: NONE, Method: STANDARD PLATE): inactive; negative; mutagenic call (Test System: AMES SALMONELLA TYPHIMURIUM, Strain/Indicator: TA1530, Metabolic Activation: RAT, LIVER, S-9, AROCLOR 1254, Method: STANDARD PLATE): inactive; negative; mutagenic call [7]: inactive; negative; mutagenic call (Test System: AMES SALMONELLA TYPHIMURIUM, Strain/Indicator: TA1537, Metabolic Activation: RAT, LIVER, S-9, AROCLOR 1254, Method: STANDARD PLATE): inactive; negative
